# System: IRA induced MMP-1
# Test: IRA-induced MMP-1 mRNA expression in primary human dermal fibroblasts
# Type: cell-based
# Conditions: for Effects in IRA treated cells: inhibition (MMP-1 mRNA): 24 hrs pre-incubation, 360 J/cm^2 Infrared A, harvested 24 hrs after irradiation; for Effect on IRA induced MMP-1 in vitro (in words): primary human dermal fibroblasts
# Experimental: Primary Human Dermal Fibroblasts
# Hydrosun 500H IRA device (Hydrosun Medizintechnik GmbH, Müllheim, Germany). The IRA device was water-filtered and equipped with a black filter and emits wavelengths between 760 and 1400 nm leading to an irradiance of 360 mW/cm^2.
# Baicalin: stock 44.8 mM in DMSO, and diluted to 10 μM, 25 μM
# Phloretin: stock 50 mM in DMSO, and diluted to 1 μM, 5 μM, and 10 μM as final treatment conditions.
# Neohesperidin dihydrochalcone: stock 710 mM in DMSO, and diluted to 100 μM, 500 μM, and 1 mM as final treatment conditions.
# Cells were incubated for 24 hrs after irradiation, and then harvested to have MMP-1 mRNA analyzed.
SMILES,Effects in IRA treated cells: inhibition (MMP-1 mRNA) (10 μM),Effects in IRA treated cells: inhibition (MMP-1 mRNA) (25 μM (0.001%)),Effect on IRA induced MMP-1 in vitro (in words),Effects in IRA treated cells: inhibition (MMP-1 mRNA) (100 μM (0.006%)),Effects in IRA treated cells: inhibition (MMP-1 mRNA) (500 μM (0.03%)),Effects in IRA treated cells: inhibition (MMP-1 mRNA) (1 mM (0.06%)),Effects in IRA treated cells: inhibition (MMP-1 mRNA) (1 μM (0.00002%)),Effects in IRA treated cells: inhibition (MMP-1 mRNA) (5 μM (0.00014%))
O=C(O)[C@H]1O[C@@H](Oc2cc3oc(-c4ccccc4)cc(=O)c3c(O)c2O)[C@H](O)[C@@H](O)[C@@H]1O [Baicalin],26% inhibition with 10 μM,100% inhibition with 25 μM+ (0.001%),reduced IRA induced MMP-1,–,–,–,–,–
COc1ccc(CCC(=O)c2c(O)cc(O[C@@H]3O[C@H](CO)[C@@H](O)[C@H](O)[C@H]3O[C@@H]3O[C@@H](C)[C@H](O)[C@@H](O)[C@H]3O)cc2O)cc1O [Neohesperidin dihydrochalcone],–,–,reduced IRA induced MMP-1,100% inhibition with 100 μM+ (0.006%),100% inhibition with 500 μM+ (0.03%),100% inhibition with 1 mM+ (0.06%),–,–
O=C(CCc1ccc(O)cc1)c1c(O)cc(O)cc1O [Phloretin],68% inhibition with 10 μM+ (0.0028%),–,reduced IRA induced MMP-1,–,–,–,22% inhibition with 1 μM+ (0.00002%),78% inhibition with 5 μM+ (0.00014%)
